Measured values reported in PubChem BioAssay (NCI).
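Grown in 96-well plates, cells were treated for 48 hours with each compound at five concentrations. Insufficient inhibition: endpoint recorded as highest concentration tested. At the GI50, growth is halved. Definition used: TGI = concentration required for complete inhibition of growth.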

How the values were obtained:
Assay in all cases: NCI anticancer screen, dose series, 48 h
[1] = test system: RXF 393 renal
[2] = test system: NCI-H460 lung
[3] = test system: HOP-62 NSCLC
[4] = test system: IGROV1 ovarian
[5] = test system: HOP-92 NSCLC
[6] = test system: LOX IMVI melanoma
[7] = test system: CCRF-CEM leukemia
[8] = test system: TK-10 renal
[9] = test system: U251 CNS
[10] = test system: M14 melanoma

Compound	GI50 [1]	TGI [1]	GI50 [2]	TGI [2]	GI50 [3]	TGI [3]	GI50 [4]	TGI [4]	GI50 [5]	TGI [5]	GI50 [6]	TGI [6]	GI50 [7]	TGI [7]	GI50 [8]	TGI [8]	GI50 [9]	TGI [9]	GI50 [10]	TGI [10]
COC1=C(OC)C(=O)C(/C=C(\C)C(=O)O)=C(C)C1=O	> 100 µM	> 100 µM	> 100 µM	> 100 µM	> 100 µM	> 100 µM	> 100 µM	> 100 µM	> 100 µM	> 100 µM	> 100 µM	> 100 µM	67 µM	> 100 µM	> 100 µM	> 100 µM	> 100 µM	> 100 µM	> 100 µM	> 100 µM
NC(=S)N/N=C(/CC(=O)c1ccc([N+](=O)[O-])cc1)C(=O)Nc1ncc([N+](=O)[O-])s1	–	> 100 µM	–	> 100 µM	–	> 100 µM	–	> 100 µM	–	> 100 µM	–	> 100 µM	–	> 100 µM	–	> 100 µM	–	> 100 µM	–	> 100 µM
Nc1nnc2nc(CC(=O)/C=C/c3ccccc3)c(=O)[nH]n12	–	> 100 µM	–	> 100 µM	–	> 100 µM	–	> 100 µM	–	> 100 µM	–	> 100 µM	–	> 100 µM	–	> 100 µM	–	> 100 µM	–	> 100 µM
Cc1c2ccccc2c(C)c2c3c(ccc12)C(=O)C=CC3=O	–	27.4 µM	–	> 100 µM	–	> 90.9 µM	–	55.5 µM	–	32.4 µM	–	> 63.4 µM	–	6.75 µM	–	36.7 µM	–	> 100 µM	–	> 81.2 µM
CCOc1ccccc1NC(=O)C(=O)CC(=O)C1=C(C)Nc2ccccc2S1	–	> 100 µM	–	> 100 µM	–	> 100 µM	–	> 100 µM	–	> 100 µM	–	> 100 µM	–	> 100 µM	–	> 100 µM	–	> 100 µM	–	> 100 µM
CCCOc1ccc(/C(Cl)=C(\C=O)c2ccc(OC)c(OC)c2)cc1OCCC	–	25.3 µM	–	28.7 µM	–	> 100 µM	–	> 100 µM	–	51.2 µM	–	25.8 µM	–	> 100 µM	–	94.3 µM	–	33.9 µM	–	> 100 µM
O=C(N[C@H](c1ccc(Cl)c(Cl)c1)C1CNC1)c1ccc2cnccc2c1	0.68 µM	3.74 µM	2.68 µM	15.4 µM	4.34 µM	16.7 µM	1.93 µM	10.6 µM	0.966 µM	5.91 µM	3.42 µM	13.9 µM	2.74 µM	13.6 µM	1.73 µM	10.7 µM	4.62 µM	17.8 µM	4.18 µM	16.7 µM
OC1CN(OC/C=C/c2ccccc2)CC(O)C1O (centres undefined)	–	> 100 µM	–	> 100 µM	–	> 100 µM	–	> 100 µM	–	> 100 µM	–	> 100 µM	–	> 100 µM	–	> 100 µM	–	> 100 µM	–	> 100 µM
COc1ccc2c(c1)C(=O)c1c-2n(CCCN=[N+]=[N-])c(=O)c2ccccc12	89.8 µM	> 100 µM	4.86 µM	> 100 µM	34.2 µM	> 100 µM	32.8 µM	> 100 µM	50.7 µM	> 100 µM	27.9 µM	> 100 µM	10.1 µM	> 100 µM	60 µM	> 100 µM	27.5 µM	> 100 µM	75.1 µM	> 100 µM
COc1ccc2c(=O)c([Se]c3coc4cc(OC)ccc4c3=O)coc2c1	–	> 100 µM	–	> 100 µM	–	> 100 µM	–	> 100 µM	–	> 100 µM	–	> 100 µM	–	> 100 µM	–	> 100 µM	–	> 100 µM	–	37.5 µM
CCN1CCN(CCOc2ccc(CNc3ccc4nc(CCC5CCCCC5)[nH]c4c3)cc2)CC1	1.3 µM	3.31 µM	2.47 µM	7.27 µM	1.99 µM	4.63 µM	2.83 µM	11 µM	0.925 µM	3.09 µM	1.71 µM	3.15 µM	1.61 µM	8.75 µM	2.93 µM	8.06 µM	1.49 µM	3.16 µM	1.68 µM	3.29 µM
Clc1ccc(-c2nc3c(-c4ccc(Cl)cc4)nc(-c4ccccc4)cn3c2-c2ccc(Cl)cc2)cc1	11.1 µM	29 µM	> 50 µM	> 50 µM	16 µM	> 50 µM	20.5 µM	> 50 µM	14.9 µM	37.1 µM	> 50 µM	> 50 µM	> 50 µM	> 50 µM	34.3 µM	> 50 µM	45.2 µM	> 50 µM	> 50 µM	> 50 µM
CC(=O)NNc1nc(C)c(C(=O)NNC(=O)C(=O)Nc2ccc(C)c(C)c2)s1	–	> 100 µM	–	> 100 µM	–	> 100 µM	–	> 100 µM	–	> 100 µM	–	> 100 µM	–	> 100 µM	–	> 100 µM	–	> 100 µM	–	> 100 µM
C=C1CC[C@@H]2C(C)(C)[C@@H](O)CC[C@@]2(C)[C@@H]1COc1ccc2ccc(=O)oc2c1	7.41 µM	21.9 µM	14.9 µM	32.4 µM	15.2 µM	35.6 µM	15.1 µM	31.9 µM	8.62 µM	24.3 µM	13.8 µM	27.7 µM	–	68.3 µM	15.3 µM	43.4 µM	9.62 µM	24.8 µM	12.5 µM	27.2 µM
Cc1cccc(CN(C)c2ccc(CO)c(Cl)c2)c1	9.52 µM	27.8 µM	2.04 µM	15.8 µM	7.41 µM	40.6 µM	0.475 µM	2.67 µM	3.46 µM	28.2 µM	18 µM	40.4 µM	27 µM	> 100 µM	0.267 µM	1.56 µM	5.07 µM	43.6 µM	20.6 µM	> 65.9 µM
CCCCCCN(CCCCCC)CCCNc1nccc2ccccc12	1.82 µM	5.3 µM	1.4 µM	2.88 µM	1.46 µM	3.41 µM	1.89 µM	4.75 µM	1.01 µM	2.47 µM	1.43 µM	2.94 µM	2.47 µM	10.7 µM	1.47 µM	3.02 µM	1.54 µM	2.96 µM	1.42 µM	2.89 µM
